System: β-amyloid neuritic plaque
Assay: Radiometer cap detection of head radiation signals after IV amyloid tracer, concurrent PET
Format: in vivo, human
Description: Tests were conducted using a series of radiometers positioned around subjects heads and a standard PET camera using the amyloid tracer ^18F-fluorbetapir in subjects with probable Alzheimer's disease (AD subjects) and healthy control volunteers (HC). ^18F-fluorbetapir is a radioactive diagnostic agent for positron emission tomography (PET) imaging of the brain to estimate β-amyloid neuritic plaque density in adult patients with cognitive impairment who are being evaluated for AD. PET imaging targeting β-amyloid neuritic plaque deposition has already begun playing a role in identifying individuals very early in the course of AD and monitoring progression of the disease over the course of the treatment with investigational therapeutics.
During testing, ^18F-fluorbetpir was administered intravenously as a bolus injection followed by a saline flush. […] Each subject received a single injection of the radioligand with a dose of no more than 10 mCi in a maximum volume of 10 mL.
The device included a cap fitted with up to 5 detectors at various 10-20 EEG positions which was placed on the subject's head. The subjects were asked to avoid any movements of the head and to remain immobilized as much as possible. Additional detectors were secured to one ankle and the chin to obtain an indirect measure of the activity in the blood, and to monitor activity in the head respectively. […] Detector specific count rates and total counts were measured continuously for up to 3 hours. The count rate and total counts were compared in the AD subjects and HC subjects to extrapolate qualitative and quantitative pattern differences. […]
For processing purposes, detected radiation signals were decay corrected to the time of injection. The counts were recorded in 4 second intervals, which were then median filtered using a 2 minute window. […]
To quantify this, a constrained bi-exponential model was fit to the 10-65 minute period of each of the detectors, as well as the sum of the brain signals (excluding the chin, ankle and tip top detectors). […]

- ankle detector signal after injection (ankle detector, all subjects, IV bolus): steadily climbed
- alpha phase of bi-exponential fit, healthy versus AD subjects (bi-exponential fit of 10-65 minute period, alpha phase limited to 5-30 min half-life): faster alpha phase
- initial washout of signal in healthy subjects versus AD subjects (head detectors, healthy subjects): faster initial washout
Compound: CNc1ccc(/C=C/c2ccc(OCCOCCOCCF)nc2)cc1 [^18F-fluorbetapir]

— patent US11660054B2, “Medical diagnostic and treatment systems and their methods of use” (Biogen MA Inc., priority 2016, dated 2023)
